Experimental findings from US9365588B2, “Benzoxazines as modulators of ion channels” (Vertex Pharmaceuticals Incorporated, priority 2011, dated 2016) are described below.

The term IC50 denotes the concentration that gives 50% inhibition.

A value given as a limit tells only on which side of the number the result lay.

Sequence of human NaV 1.7 (Q15858 whole entry): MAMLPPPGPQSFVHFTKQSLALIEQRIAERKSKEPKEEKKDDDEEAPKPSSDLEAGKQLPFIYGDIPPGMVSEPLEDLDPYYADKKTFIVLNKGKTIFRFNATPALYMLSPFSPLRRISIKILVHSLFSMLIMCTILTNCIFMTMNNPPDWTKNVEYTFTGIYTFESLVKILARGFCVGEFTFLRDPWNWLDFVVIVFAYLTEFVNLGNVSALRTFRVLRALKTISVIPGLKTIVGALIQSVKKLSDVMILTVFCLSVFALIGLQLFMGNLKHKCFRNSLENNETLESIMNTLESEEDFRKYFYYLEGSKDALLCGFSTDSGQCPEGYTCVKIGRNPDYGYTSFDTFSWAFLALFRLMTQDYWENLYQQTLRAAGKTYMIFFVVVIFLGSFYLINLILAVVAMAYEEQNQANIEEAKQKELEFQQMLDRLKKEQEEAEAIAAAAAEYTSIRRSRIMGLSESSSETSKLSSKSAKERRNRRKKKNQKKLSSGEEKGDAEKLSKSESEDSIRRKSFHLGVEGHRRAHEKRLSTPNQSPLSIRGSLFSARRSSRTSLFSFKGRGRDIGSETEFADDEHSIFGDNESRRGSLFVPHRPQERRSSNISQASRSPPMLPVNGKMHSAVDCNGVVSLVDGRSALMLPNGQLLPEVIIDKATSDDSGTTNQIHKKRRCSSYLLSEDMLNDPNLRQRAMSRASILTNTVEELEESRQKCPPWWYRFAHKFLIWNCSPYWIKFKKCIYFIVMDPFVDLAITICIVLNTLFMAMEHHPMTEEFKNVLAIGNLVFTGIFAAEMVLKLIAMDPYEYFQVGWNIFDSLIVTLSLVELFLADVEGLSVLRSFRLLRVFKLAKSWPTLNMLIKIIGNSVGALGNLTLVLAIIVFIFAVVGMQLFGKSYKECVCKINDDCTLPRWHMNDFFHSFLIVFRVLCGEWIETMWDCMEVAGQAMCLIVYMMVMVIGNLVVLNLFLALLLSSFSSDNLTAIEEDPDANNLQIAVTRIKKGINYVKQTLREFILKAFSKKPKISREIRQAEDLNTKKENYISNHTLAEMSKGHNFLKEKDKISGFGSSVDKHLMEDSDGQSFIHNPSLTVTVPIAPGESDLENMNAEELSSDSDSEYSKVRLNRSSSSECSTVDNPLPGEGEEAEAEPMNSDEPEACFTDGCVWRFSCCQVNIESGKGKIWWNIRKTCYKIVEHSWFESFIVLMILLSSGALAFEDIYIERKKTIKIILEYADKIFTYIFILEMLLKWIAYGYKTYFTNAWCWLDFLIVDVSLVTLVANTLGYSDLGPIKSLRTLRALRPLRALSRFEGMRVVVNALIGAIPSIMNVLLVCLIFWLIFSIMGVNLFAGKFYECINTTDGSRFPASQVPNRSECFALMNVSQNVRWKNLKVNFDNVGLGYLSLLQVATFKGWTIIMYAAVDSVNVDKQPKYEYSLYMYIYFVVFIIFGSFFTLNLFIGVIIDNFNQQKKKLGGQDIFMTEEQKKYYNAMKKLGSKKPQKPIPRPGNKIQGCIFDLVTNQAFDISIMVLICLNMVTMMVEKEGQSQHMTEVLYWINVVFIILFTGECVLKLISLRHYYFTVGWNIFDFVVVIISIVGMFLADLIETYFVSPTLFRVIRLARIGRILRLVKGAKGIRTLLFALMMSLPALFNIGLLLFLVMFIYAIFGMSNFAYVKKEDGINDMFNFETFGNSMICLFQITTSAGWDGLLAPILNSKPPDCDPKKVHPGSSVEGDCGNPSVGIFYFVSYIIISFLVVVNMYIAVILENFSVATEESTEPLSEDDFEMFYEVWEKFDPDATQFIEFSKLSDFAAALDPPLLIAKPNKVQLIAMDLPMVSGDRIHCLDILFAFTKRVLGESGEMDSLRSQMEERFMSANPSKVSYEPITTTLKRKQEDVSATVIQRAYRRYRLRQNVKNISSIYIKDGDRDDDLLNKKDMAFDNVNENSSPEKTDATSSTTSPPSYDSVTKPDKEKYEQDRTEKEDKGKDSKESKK

This assay has as its target human NaV 1.7 (Homo sapiens, UniProt Q15858). Kind of assay: E-VIPR optical membrane potential assay with electrical stimulation. The note with it: sodium channel inhibition; read-out: Binned Activity Data (IC50). The format is cell-based. A digest of the protocol: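 Membrane-potential read-out: background-subtracted 460 nm/580 nm ratio during a 9 s current-controlled stimulus, 400 Hz scan. Before stimulation, NaV1.7-HEK cells carried coumarin/oxonol dye and compound (final DMSO 0.625%) for 20–35 min at room temperature; tetracaine 125 μM served as positive control.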
Turning to `O=C(c1ccc(O[C@H]2CCOC2)c(C(F)(F)F)c1)N1CCC2(CC1)Oc1ccccc1-n1cccc12` [Compound 263], the IC50 is at most 2000 nM.
On to `CC(C)(C)c1ccc(C(=O)N2CCC3(CC2)Oc2ccccc2-n2c3ccc2S(C)(=O)=O)cc1` [Compound 265], for which the IC50 was at most 2000 nM.
For the molecule `CCn1ncc2c1-c1cc(F)ccc1OC21CCN(C(=O)c2ccc(OC(C)C)c(C)c2)CC1` [Compound 267], the half-inhibitory concentration (IC50) is at most 2000 nM.
The same measure for `CCCOc1ccc(C(=O)N2CCC3(CC2)Oc2cc(Cl)ccc2-n2cccc23)cc1C(F)(F)F` [Compound 269]: at most 2000 nM; for `O=C(c1ccc(S(=O)(=O)C2CC2)cc1)N1CCC2(CC1)Oc1ccccc1-n1c(C(F)(F)F)ccc12` [Compound 270]: at most 2000 nM.
In the case of `Cc1cc(C(=O)N2CCC3(CC2)Oc2cccnc2-c2c3cnn2C)ccc1OC(C)C` [Compound 271], the IC50 is above 5000 nM.
In the case of `N#Cc1cccc(C(=O)N2CCC3(CC2)Oc2cc(Cl)ccc2-n2cccc23)c1` [Compound 272] it was above 5000 nM.
The same measure for `Cc1cc(C(=O)N2CCC3(CC2)Oc2ccccc2-c2c3c(C)nn2C)ccc1OC(C)C` [Compound 274]: at most 2000 nM.
In the case of `CC(C)Oc1ccc(C(=O)N2CCC3(CC2)Oc2ccccc2-c2nn(C)cc23)cc1CO` [Compound 276] it was at most 2000 nM; in that of `O=C(c1cc(Cl)cc(Cl)c1)N1CCC2(CC1)Oc1cc(Cl)ccc1-n1cccc12` [Compound 277], at most 2000 nM; in that of `COc1cc(C(=O)N2CCC3(CC2)Oc2ccccc2-c2nn(C)cc23)ccc1OC(C)C` [Compound 281], at most 2000 nM.
With `CC(C)Oc1ccc(C(=O)N2CCC3(CC2)Oc2ccccc2-n2c3ccc2S(C)(=O)=O)cc1F` [Compound 282], the IC50 was at most 2000 nM.
Regarding `Cn1ncc2c1-c1cc(Cl)ccc1OC21CCN(C(=O)c2ccccc2OC(F)F)CC1` [Compound 283], the IC50 was at most 2000 nM.
In the case of `Cn1cc2c(n1)-c1ccccc1OC21CCN(C(=O)c2ccc(OC(F)F)cc2)CC1` [Compound 284] it was at most 2000 nM.
The same measure for `N#Cc1ccc2n1-c1ccccc1OC21CCN(C(=O)c2ccccc2OC(F)F)CC1` [Compound 285]: at most 2000 nM; for `CC(C)Oc1ccc(C(=O)N2CCC3(CC2)Oc2ccccc2-n2c([S+](C)[O-])ccc23)cc1CO` (stereo not drawn) [Compound 286]: at most 2000 nM.
For `COc1cc(C(=O)N2CCC3(CC2)Oc2cc(Cl)ccc2-n2cccc23)ccc1C1(O)COC1` [Compound 287], the IC50 is at most 2000 nM.
`COc1ccc2c(c1)OC1(CCN(C(=O)c3ccc(OC(C)C)c(C)c3)CC1)c1cnn(C)c1-2` [Compound 289]: the IC50 was at most 2000 nM.
In the case of `Cn1ncc2c1-c1ccccc1OC21CCN(C(=O)c2cccc3c2OCC3)CC1` [Compound 290] it was at most 2000 nM; in that of `COc1cc(C(=O)N2CCC3(CC2)Oc2cc(Cl)ccc2-n2cccc23)ccc1OCCOC(F)(F)F` [Compound 291], at most 2000 nM; in that of `Cn1ncc2c1-c1ccccc1OC21CCN(C(=O)c2ccccc2OC2CCOCC2)CC1` [Compound 292], at most 2000 nM.
The same measure for `N#Cc1ccc2n1-c1ccccc1OC21CCN(C(=O)c2ccc(OC[C@@H](O)CO)cc2)CC1` [Compound 293]: at most 2000 nM.
As for `CC(C)(C)c1ccc(C(=O)N2CCC3(CC2)Oc2ccccc2-n2c(C#N)ccc23)cc1` [Compound 295], the half-inhibitory concentration (IC50) was at most 2000 nM.
Take `CC(C)Oc1ccc(C(=O)N2CCC3(CC2)Oc2ccccc2-n2c3ccc2S(C)(=O)=O)cc1CO` [Compound 296]: the IC50 was at most 2000 nM.
Take `CC(C)S(=O)(=O)c1ccc(C(=O)N2CCC3(CC2)Oc2ccccc2-n2c(C#N)ccc23)cc1` [Compound 297]: the half-maximal inhibitory concentration (IC50) was at most 2000 nM.
In the case of `COCCOc1ccc(C(=O)N2CCC3(CC2)Oc2ccccc2-c2c3ccn2C)cc1OC` [Compound 298] it was at most 2000 nM; in that of `COc1cccc(Cl)c1C(=O)N1CCC2(CC1)Oc1ccccc1-c1c2cnn1C` [Compound 299], above 5000 nM; in that of `COc1ccc(C(=O)N2CCC3(CC2)Oc2cc(Cl)ccc2-n2c(CO)ccc23)cc1C(F)(F)F` [Compound 300], at most 2000 nM.
The same measure for `COC[C@@H](C)Oc1ccc(C(=O)N2CCC3(CC2)Oc2cc(F)ccc2-n2cccc23)cc1OC` [Compound 303]: at most 2000 nM.
In the case of `N#Cc1cc(F)cc(C(=O)N2CCC3(CC2)Oc2cc(Cl)ccc2-n2cccc23)c1` [Compound 304] it was at most 2000 nM.
For the molecule `COCCOc1ccc(C(=O)N2CCC3(CC2)Oc2cc(F)ccc2-n2cccc23)cc1OC` [Compound 305], the concentration for half-maximal inhibition (IC50) was at most 2000 nM.
As for `CC(C)Oc1ccc(C(=O)N2CCC3(CC2)Oc2ccccc2-c2c3cnn2C)cc1C#N` [Compound 306], the IC50 is at most 2000 nM.
In the case of `COc1cc(C(=O)N2CCC3(CC2)Oc2ccccc2-c2nn(C)cc23)ccc1OC(C)(C)C` [Compound 307] it was at most 2000 nM.
The same measure for `CC(C)(O)Cc1ccc(C(=O)N2CCC3(CC2)Oc2ccccc2-n2c(C#N)ccc23)cc1` [Compound 308]: at most 2000 nM; for `Cn1ncc2c1-c1cc(F)ccc1OC21CCN(C(=O)c2ccccc2C(F)F)CC1` [Compound 309]: above 5000 nM; for `CC(C)Oc1ccc(C(=O)N2CCC3(CC2)Oc2ccccc2-n2c(C#N)ccc23)c(CO)c1` [Compound 310]: at most 2000 nM.
`CC(=O)c1ccc2n1-c1ccccc1OC21CCN(C(=O)c2ccc(S(=O)(=O)C(C)(C)C)cc2)CC1` [Compound 311]: the IC50 was at most 2000 nM.
The same measure for `COCCOc1cc(F)c(C(=O)N2CCC3(CC2)Oc2cc(F)ccc2-n2cccc23)cc1OC` [Compound 312]: at most 2000 nM; for `COc1cc(C(=O)N2CCC3(CC2)Oc2ccccc2-c2c3cnn2C)ccc1OC(C)(C)C` [Compound 313]: at most 2000 nM; for `CCc1ccc(C(=O)N2CCC3(CC2)Oc2ccccc2-n2ccc(C)c23)cc1OC` [Compound 314]: at most 2000 nM.
In the case of `Cc1cc(C(=O)N2CCC3(CC2)Oc2ccccc2-n2ccc(C)c23)ccc1OC(C)C` [Compound 315] it was at most 2000 nM; in that of `COc1cc(C(=O)N2CCC3(CC2)Oc2ccccc2-n2ccnc23)ccc1OC(C)C` [Compound 316], at most 2000 nM; in that of `Cn1ncc2c1-c1ccccc1OC21CCN(C(=O)c2cc3ccccc3n2C)CC1` [Compound 317], above 5000 nM.
The same measure for `CC(C)Oc1ccc(C(=O)N2CCC3(CC2)Oc2ccccc2-n2c(C#N)ccc23)c(F)c1` [Compound 318]: at most 2000 nM.
In the case of `Cn1ncc2c1-c1ccccc1OC21CCN(C(=O)c2ccccc2NS(C)(=O)=O)CC1` [Compound 319], the IC50 is 2000 to 5000 nM.
On to `CCn1ncc2c1-c1ccccc1OC21CCN(C(=O)c2ccccc2OC(F)(F)F)CC1` [Compound 321], for which the IC50 is at most 2000 nM.
Consider `Cn1ncc2c1-c1ccccc1OC21CCN(C(=O)c2ccnc3ccccc23)CC1` [Compound 322], for which the IC50 lay in the range of 2000 to 5000 nM.
The same measure for `CC(C)(N)c1ccc(C(=O)N2CCC3(CC2)Oc2ccccc2-n2c(C#N)ccc23)cc1` [Compound 323]: 2000 to 5000 nM; for `Cc1nc2ccc(C(=O)N3CCC4(CC3)Oc3ccccc3-c3c4cnn3C)cc2s1` [Compound 324]: above 5000 nM; for `Cn1cc2c(n1)-c1ccccc1OC21CCN(C(=O)c2ccc3nc(N)sc3c2)CC1` [Compound 325]: 2000 to 5000 nM.
`CC[C@H](C)Oc1ccc(C(=O)N2CCC3(CC2)Oc2ccccc2-n2cccc23)cc1OC` [Compound 326]: the half-maximal inhibitory concentration (IC50) is at most 2000 nM.
As for `CC(C)(C)S(=O)(=O)c1ccc(C(=O)N2CCC3(CC2)Oc2ccccc2-n2cccc23)cc1` [Compound 327], the IC50 is at most 2000 nM.
The same measure for `COc1c(F)cccc1C(=O)N1CCC2(CC1)Oc1cc(Cl)ccc1-c1c2cnn1C` [Compound 328]: at most 2000 nM; for `O=C(c1cccnc1Oc1ccccc1)N1CCC2(CC1)Oc1ccccc1-n1c(C(F)(F)F)ccc12` [Compound 330]: at most 2000 nM.
As to `Cn1ncc2c1-c1ccccc1OC21CCN(C(=O)c2csc(-c3ccccc3)n2)CC1` [Compound 331], the half-maximal inhibitory concentration (IC50) was above 5000 nM.
Take `CN(C)CCOc1ccc(C(=O)N2CCC3(CC2)Oc2ccccc2-n2cccc23)cc1C(F)(F)F` [Compound 333]: the IC50 is at most 2000 nM.
The same measure for `CC(C)(Oc1ccc(C(=O)N2CCC3(CC2)Oc2ccccc2-n2c(C#N)ccc23)cc1)C(=O)O` [Compound 334]: above 5000 nM; for `COc1cc(S(=O)(=O)C(C)C)ccc1C(=O)N1CCC2(CC1)Oc1ccccc1-c1c2cnn1C` [Compound 336]: at most 2000 nM.
Turning to `O=C(c1ccccc1OC(F)F)N1CCC2(CC1)Oc1ccccc1-c1c2cnn1C(F)(F)F` [Compound 337], the IC50 is at most 2000 nM.
Take `Cc1cc(C(=O)N2CCC3(CC2)Oc2cc(C#N)ccc2-n2cccc23)ccc1OC(C)C` [Compound 338]: the half-inhibitory concentration (IC50) was at most 2000 nM.
In the case of `Cn1ncc2c1-c1cc(F)ccc1OC21CCN(C(=O)c2ccccc2OC(F)F)CC1` [Compound 340], the half-maximal inhibitory concentration (IC50) was at most 2000 nM.
In the case of `O=C(c1ccc(OC(F)F)cc1)N1CCC2(CC1)Oc1ccccc1-n1c(C(F)(F)F)ccc12` [Compound 341] it was above 5000 nM; in that of `COc1cc(C(=O)N2CCC3(CC2)Oc2ccccc2-n2cccc23)ccc1OC1CCCC1` [Compound 342], at most 2000 nM; in that of `N#Cc1ccccc1C(=O)N1CCC2(CC1)Oc1cc(Cl)ccc1-n1cccc12` [Compound 343], above 5000 nM.
As for `Cn1ncc2c1-c1ccccc1OC21CCN(C(=O)c2cccc3c2OC(F)(F)O3)CC1` [Compound 345], the IC50 was at most 2000 nM.
Consider `Cn1ncc2c1-c1ccccc1OC21CCN(C(=O)c2cccc3c2OCCO3)CC1` [Compound 346], for which the half-inhibitory concentration (IC50) was at most 2000 nM.
In the case of `CCc1ccc(C(=O)N2CCC3(CC2)Oc2ccccc2-n2c(C(F)(F)F)ccc23)cc1OC` [Compound 347] it was at most 2000 nM; in that of `COc1cc(C(=O)N2CCC3(CC2)Oc2cc(Cl)ccc2-n2cccc23)ccc1O[C@@H]1CCC[C@H]1O` [Compound 348], at most 2000 nM.
Take `Cc1ccc(C(=O)N2CCC3(CC2)Oc2cc(F)ccc2-n2cccc23)cc1C` [Compound 349]: the IC50 is at most 2000 nM.
